Results as given in PubChem BioAssay AID1259411 (Chemical Carcinogenesis Research Information System (CCRIS), 2018).
Activity calls are given as the source filed them. No rule for the calls is given here.

Test system: rodent carcinogenicity bioassays, tumor incidence
Assay: CCRIS carcinogenicity studies
Outline: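 Archive of carcinogenicity, mutagenicity, tumor promotion and tumor inhibition results drawn from journals, NCI reports and other sources, expert-reviewed; covers 1985-2011 and is no longer updated.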

Q: `CCCN(CC(C)=O)N=O` was tested. Which carcinogen call (Species: HAMSTER, Strain/Sex: SYRIAN/MALE,FEMALE, Route: SUBCUTANEOUS, Dose: 50-200 MG/KG 1/WK FOR LIFE, Tumor Site: Type of Lesion: RESPIRATORY TRACT, LIVER, KIDNEY, Tumor Site: Type of Lesion: RESPIRATORY TRACT, LIVER, KIDNEY) did it give?
A: active; positive

Q: What about the carcinogen call (Species: MOUSE, Strain/Sex: NMRI/FEMALE, Route: SUBCUTANEOUS, Dose: 0.05, 0.1, 0.2% OF 603 MG/KG IN SALINE 1/WK FOR LIFE, Dose: 0.05, 0.1, 0.2% OF 603 MG/KG IN SALINE 1/WK FOR LIFE, Tumor Site: Type of Lesion: LIVER: HEMANGIOENDOTHELIAL SARCOMA, NASAL CAVITY: PAPILLOMA, ADENOCARCINOMA, NASAL TURBINATES: PAPILLOMA, ADENOCARCINOMA, Tumor Site: Type of Lesion: LIVER: HEMANGIOENDOTHELIAL SARCOMA, NASAL CAVITY: PAPILLOMA, ADENOCARCINOMA, NASAL TURBINATES: PAPILLOMA, ADENOCARCINOMA) of the same compound?
A: active; positive

Q: What about the carcinogen call (Species: RAT, Strain/Sex: SPRAGUE-DAWLEY/MALE,FEMALE, Route: SUBCUTANEOUS, Dose: 0.12, 0.42, 0.85 MG/KG 1/WK FOR LIFE, Dose: 0.12, 0.42, 0.85 MG/KG 1/WK FOR LIFE, Tumor Site: Type of Lesion: LIVER: HEPATOMA, CARCINOMA) of the same compound?
A: active; positive

Q: How did the carcinogen call (Species: MOUSE, Strain/Sex: B6C3F1/FEMALE, Route: GAVAGE, Dose: 0, 250, 500 MG/KG 3/WK FOR 103 WK, Dose: 0, 250, 500 MG/KG 3/WK FOR 103 WK, Tumor Site: Type of Lesion: UTERUS (ENDOMETRIUM): ADENOCARCINOMA (NOS)) turn out when `COP(=O)(OC)OC` was run?
A: active; positive

Q: And the carcinogen call (Species: MOUSE, Strain/Sex: B6C3F1/MALE, Route: GAVAGE, Dose: 0, 250, 500 MG/KG 3/WK FOR 103 WK, Dose: 0, 250, 500 MG/KG 3/WK FOR 103 WK)?
A: inactive; negative

Q: And the carcinogen call (Species: RAT, Strain/Sex: F344/FEMALE, Route: GAVAGE, Dose: 0, 50, 100 MG/KG 3/WK FOR 104 WK (STUDY DURATION: 105 WK), Dose: 0, 50, 100 MG/KG 3/WK FOR 104 WK (STUDY DURATION: 105 WK))?
A: inactive; negative

Q: And the carcinogen call (Species: RAT, Strain/Sex: WISTAR/FEMALE, Route: ORAL, Dose: 0, 1, 10, 100 MG/KG/D IN DRINKING WATER FOR DURATION OF STUDY, HIGH DOSE REDUCED TO 50 MG/KG IN WK 54 (STUDY DURATION: 3, Dose: 0, 1, 10, 100 MG/KG/D IN DRINKING WATER FOR DURATION OF STUDY, HIGH DOSE REDUCED TO 50 MG/KG IN WK 54 (STUDY DURATION: 3)?
A: inactive; negative

Q: And the carcinogen call (Species: RAT, Strain/Sex: WISTAR/MALE, Route: ORAL, Dose: 0, 1, 10, 100 MG/KG/D IN DRINKING WATER FOR DURATION OF STUDY, HIGH DOSE REDUCED TO 50 MG/KG IN WK 54 (STUDY DURATION: 3, Dose: 0, 1, 10, 100 MG/KG/D IN DRINKING WATER FOR DURATION OF STUDY, HIGH DOSE REDUCED TO 50 MG/KG IN WK 54 (STUDY DURATION: 3)?
A: inactive; negative

Q: For `C[C@]12CC[C@@H]3c4cc(O)c(O)cc4CC[C@H]3[C@@H]1CC[C@@H]2O`, which carcinogen call (Species: MOUSE, Strain/Sex: CD-1/FEMALE, Route: SUBCUTANEOUS, Dose: 0, 2 UG/D IN CORN OIL ON DAYS 1-5 OF LIFE (STUDY DURATION: 12-18 WK), Tumor Site: Type of Lesion: UTERUS: ADENOCARCINOMA) is on record?
A: active; positive

Q: With `COc1cc(S(=O)(=O)O)c(C)cc1N=Nc1c(O)ccc2cc(S(=O)(=O)O)ccc12` as the compound, how does the carcinogen call (Species: MOUSE, Strain/Sex: CD-1/FEMALE, Route: ORAL, Dose: 0, 0.37, 1.39, 5.19% IN DIET FOR LIFE TO OFFSPRING OF ANIMALS ADMINISTERED THE SAME DOSES DURING BREEDING, GESTATION AND, Dose: 0, 0.37, 1.39, 5.19% IN DIET FOR LIFE TO OFFSPRING OF ANIMALS ADMINISTERED THE SAME DOSES DURING BREEDING, GESTATION AND) read?
A: inactive; negative

Q: What about the carcinogen call (Species: MOUSE, Strain/Sex: CD-1/MALE, Route: ORAL, Dose: 0, 0.37, 1.39, 5.19% IN DIET FOR LIFE TO OFFSPRING OF ANIMALS ADMINISTERED THE SAME DOSES DURING BREEDING, GESTATION AND, Dose: 0, 0.37, 1.39, 5.19% IN DIET FOR LIFE TO OFFSPRING OF ANIMALS ADMINISTERED THE SAME DOSES DURING BREEDING, GESTATION AND) of the same compound?
A: inactive; negative

Q: What about the carcinogen call (Species: MOUSE, Strain/Sex: HAM/ICR/FEMALE, Route: ORAL, Dose: 0, 0.37, 1.39, 5.19% IN DIET FOR LIFE TO OFFSPRING OF ANIMALS ADMINISTERED THE SAME DOSES DURING BREEDING, GESTATION AND, Dose: 0, 0.37, 1.39, 5.19% IN DIET FOR LIFE TO OFFSPRING OF ANIMALS ADMINISTERED THE SAME DOSES DURING BREEDING, GESTATION AND) of the same compound?
A: inactive; negative

Q: What about the carcinogen call (Species: MOUSE, Strain/Sex: HAM/ICR/MALE, Route: ORAL, Dose: 0, 0.37, 1.39, 5.19% IN DIET FOR LIFE TO OFFSPRING OF ANIMALS ADMINISTERED THE SAME DOSES DURING BREEDING, GESTATION AND, Dose: 0, 0.37, 1.39, 5.19% IN DIET FOR LIFE TO OFFSPRING OF ANIMALS ADMINISTERED THE SAME DOSES DURING BREEDING, GESTATION AND) of the same compound?
A: inactive; negative

Q: What about the carcinogen call (Species: RAT, Strain/Sex: SPRAGUE-DAWLEY/FEMALE, Route: ORAL, Dose: 0, 0.37, 1.39, 5.19% OF DIET BEGINNING WITH PARENTAL GENERATION AND CONTINUING WITH THE OFFSPRING FOLLOWING WEANING (STU, Dose: 0, 0.37, 1.39, 5.19% OF DIET BEGINNING WITH PARENTAL GENERATION AND CONTINUING WITH THE OFFSPRING FOLLOWING WEANING (STU) of the same compound?
A: inactive; negative

Q: And the carcinogen call (Species: RAT, Strain/Sex: SPRAGUE-DAWLEY/MALE, Route: ORAL, Dose: 0, 0.37, 1.39, 5.19% OF DIET BEGINNING WITH PARENTAL GENERATION AND CONTINUING WITH THE PUPS FOLLOWING WEANING (STUDY DU, Dose: 0, 0.37, 1.39, 5.19% OF DIET BEGINNING WITH PARENTAL GENERATION AND CONTINUING WITH THE PUPS FOLLOWING WEANING (STUDY DU)?
A: inactive; negative

Q: Which carcinogen call (Species: MOUSE, Strain/Sex: B6C3F1/FEMALE, Route: INHALATION, Dose: 0, 158, 315, 630 MG/M3 6 HR/D 5 D/WK FOR 103 WK (STUDY DURATION: 104 WK), Dose: 0, 158, 315, 630 MG/M3 6 HR/D 5 D/WK FOR 103 WK (STUDY DURATION: 104 WK), Tumor Site: Type of Lesion: LUNG: ALVEOLAR/BRONCHIOLAR ADENOMA, ALVEOLAR/BRONCHIOLAR ADENOMA OR CARCINOMA) does the source give for `CC(C)CON=O` here?
A: active; positive

Q: And the carcinogen call (Species: MOUSE, Strain/Sex: B6C3F1/MALE, Route: INHALATION, Dose: 0, 158, 315, 630 MG/M3 6 HR/D 5 D/WK FOR 103 WK (STUDY DURATION: 104 WK), Dose: 0, 158, 315, 630 MG/M3 6 HR/D 5 D/WK FOR 103 WK (STUDY DURATION: 104 WK), Tumor Site: Type of Lesion: LUNG: ALVEOLAR/BRONCHIOLAR ADENOMA, ALVEOLAR/BRONCHIOLAR ADENOMA OR CARCINOMA)?
A: active; positive

Q: What about the carcinogen call (Species: RAT, Strain/Sex: F344/FEMALE, Route: INHALATION, Dose: 0, 158, 315, 630 MG/M3 6 HR/D 5 D/WK FOR 103 WK (STUDY DURATION: 105 WK), Dose: 0, 158, 315, 630 MG/M3 6 HR/D 5 D/WK FOR 103 WK (STUDY DURATION: 105 WK), Tumor Site: Type of Lesion: LUNG: ALVEOLAR/BRONCHIOLAR ADENOMA, ALVEOLAR/BRONCHIOLAR CARCINOMA OR ADENOMA) of the same compound?
A: active; positive

Q: What about the carcinogen call (Species: RAT, Strain/Sex: F344/MALE, Route: INHALATION, Dose: 0, 158, 315, 630 MG/M3 6 HR/D 5 D/WK FOR 103 WK (STUDY DURATION: 105 WK), Dose: 0, 158, 315, 630 MG/M3 6 HR/D 5 D/WK FOR 103 WK (STUDY DURATION: 105 WK), Tumor Site: Type of Lesion: LUNG: ALVEOLAR/BRONCHIOLAR ADENOMA, ALVEOLAR/BRONCHIOLAR CARCINOMA) of the same compound?
A: active; positive
